{"source": "paper PMC7162492", "about": "“Pharmacological and pharmacokinetic profile of the novel ocular hypotensive prodrug CKLP1 in Dutch-belted pigmented rabbits” (PLoS ONE, 2020)", "key": {"[1]": {"design": "method as in earlier work", "settings": "ref Roy Chowdhury U, Viker KB, Stoltz KL, et al. J Med Chem. 2016;59(13):6221-31; cited from earlier work"}, "[2]": {"assay": "Plasma pharmacokinetics after single intravenous injection of CKLP1 (LC-MS/MS)", "assay_type": "in vivo, Dutch-belted pigmented rabbits", "method": "(§1) LC-MS/MS analysis of all fluids were performed using a Waters (Milford, MA) Acquity UPLC BEH C18 column (1.7 μm, 2.1 x 50 mm) with an Agilent EC-C18 pre-column (2.7 μm, 2.1 x 5 mm) and a gradient elution program containing ultra-pure water and acetonitrile with 2.5 mM ammonium formate, at a flow rate of 0.2 ml/min. Flavopiridol was used as an internal standard. The column and auto-sampler temperatures were maintained at 40°C and 4°C, respectively. Source parameters were capillary voltage, 2.6 kV; source temperature, 150°C; desolvation temperature, 500°C; cone gas flow, 150 L/h; and desolvation gas flow, 800 L/h. The cone voltages and collision energies for CKLP1, levcromakalim and flavopiridol were determined by MassLynx-Intellistart software, v4.1, and were 32, 34 and 72 V (cone) and 20, 14 and 30 eV (collision), respectively. The retention times were 4.5 minutes for CKLP1, 5.9 minutes for levcromakalim and 5.7 minutes for flavopiridol.\n(§2) To validate accurate measurement of CKLP1 and levcromakalim, known concentrations of CKLP1 (5, 10, 25, 50, 100, 250, 500 ng/ml) and levcromakalim (1, 5, 10, 25, 50, 100, 250 ng/ml) were added to human plasma (obtained from the Mayo Clinic Division of Transfusion Medicine under an Institutional Review Board approved protocol) to make calibration curves. Quality control was determined for each run by using known quantities of CKLP1 and levcromakalim to verify that the instrument recorded values consistent with the established standard curve. The effect of carryover was evaluated by injecting blank samples before and after running the standard samples for calibration curves. Unknown samples with signal to noise ratios >10 were recorded as acceptable concentrations. Samples with signal to noise ratios <10 were reported as not detectable (ND). Controls consisted of a double blank (without analytes and internal standard) and a single blank (only internal standard). The linearity of the calibration curves was determined by plotting the ratios of analytes to internal standard peak areas. The curve was fitted by least squares regression with a 1/x weighting for both CKLP1 and levcromakalim. Data was collected from 3–6.4 minutes for CKLP1 and 4–8 minutes for both levcromakalim and flavopiridol. Waters MassLynx Intellistart software v4.1 was used for analysis.\n(§3) All experiments with animals were pre-approved by the Institutional Animal Care and Use Committee of the Mayo Clinic, Rochester, MN and adhered to the recommendations in the Guide for the Care and use of Laboratory Animals of the National Institutes of Health, and the tenets of the ARVO Statement for the Use of Animals in Vision Research. Female Dutch-belted pigmented rabbits (age 7 months) were obtained from Covance Research Products, Inc. (Denver, PA). Rabbits were housed in pairs and kept in a climate controlled room with 12 h light and dark cycles. Animals had unrestrained access to water and standard rabbit food pellets at all times. Upon receipt, animals were acclimated for at least 5 days before initiation of the experiment. IOP was measured with a handheld rebound tonometer (Icare Tonovet, Colonial Medical Supply, Franconia, NH, USA) in conscious and minimally restrained, non-anesthetized rabbits as previously described. Briefly, daily IOP was calculated from the average of 3 independent IOP measurements at 3 different time points each day. These time points corresponded to 1 h, 4 h and 23 h post treatment on any given day. Rabbits that needed to be handled for IOP were subjected to sham IOP measurements for two days prior to initiation of experiment. Rabbits (n = 3) were injected intravenously through the right ear vein with CKLP1 as a bolus dose equal to 0.25 mg/kg body weight. Additional rabbits were treated topically through instillation of 50 μl eye drops of a 10 mM (4.1 mg/ml) solution of CKLP1 in sterile PBS. […]"}, "[3]": {"assay": "Plasma pharmacokinetics after topical eye drops of CKLP1, days 1, 4 and 8 (LC-MS/MS)", "assay_type": "in vivo, Dutch-belted pigmented rabbits", "settings": "for AUC(0-t) / Cmax / half-life / Tmax: female, Dutch-belted pigmented, rabbit, topical or ocular; for AUC(0-t) / Cmax / half-life / Tmax / Clast / Tlast: plasma; for Cmax: read-out: Cmax; for half-life: read-out: Half-life (converted); for Tmax: read-out: Tmax (converted)", "method": "as §1, §2, §3"}, "[4]": {"assay": "Concentration in aqueous and vitreous humor after topical CKLP1 for 1, 4 or 8 days (LC-MS/MS)", "assay_type": "in vivo, Dutch-belted pigmented rabbits", "settings": "topical CKLP1 both eyes, days 1, 4 and 8, collected after the 24 h blood sample; for concentration at 24 h: female, Dutch-belted pigmented, rabbit", "method": "as §1, §2, §3"}, "[5]": {"assay": "Tissue and fluid distribution after 90 days of daily topical CKLP1 (LC-MS/MS)", "assay_type": "in vivo, Dutch-belted pigmented rabbits", "settings": "topical eye drops 10 mM CKLP1, 90 consecutive days", "method": "as §1, §2, §3"}, "[6]": {"settings": "rabbit, intravenous 0.25 mg/kg CKLP1"}, "[7]": {"settings": "eye drops 10 mM CKLP1 both eyes once daily, Day 4"}, "[8]": {"settings": "eye drops 10 mM CKLP1 both eyes once daily, Day 8"}, "[9]": {"settings": "eye drops 10 mM CKLP1 both eyes, Day 1"}}, "note": "Where “and” joins values, the source holds several entries; their conditions need not be identical. Equal values may be shown once. Read-outs that look alike come from different tables or passages of the source.", "data": [{"smiles": "CC1(C)Oc2ccc(C#N)cc2C(N2CCCC2=O)C1O", "note": "(stereo not drawn) [Cromakalim, cromakalim, reference compound]", "values": [{"measurement": "Solubility in water", "setting": "[1]", "result": "insoluble in water"}]}, {"smiles": "CC1(C)Oc2ccc(C#N)cc2[C@@H](N2CCCC2=O)[C@@H]1O", "note": "[Levcromakalim, levcromakalim, reference compound]", "values": [{"measurement": "AUC(0-t)", "setting": "[2]; female, Dutch-belted pigmented, rabbit, intravenous 0.25 mg/kg CKLP1", "result": "120 ± 93.7", "unit": "ng·h/mL"}, {"measurement": "Cmax", "setting": "[2]; female, Dutch-belted pigmented, rabbit, intravenous 0.25 mg/kg CKLP1, read-out: Cmax", "result": "10.6 ± 1.2", "unit": "ng/mL"}, {"measurement": "half-life", "setting": "[2]; female, Dutch-belted pigmented, rabbit, intravenous 0.25 mg/kg CKLP1, read-out: Half-life", "result": "1.42 ± 0.617", "unit": "h"}, {"measurement": "Tmax", "setting": "[2]; female, Dutch-belted pigmented, rabbit, intravenous 0.25 mg/kg CKLP1, read-out: Tmax (converted)", "result": 1.02, "unit": "h"}, {"measurement": "Peak concentration (Cmax) of levcromakalim relative to CKLP1", "setting": "[2]; intravenous CKLP1, fold less than CKLP1", "result": "~200", "unit": "fold"}, {"measurement": "Clast", "setting": "[2]; [6]", "result": "4.4 ± 4.3", "unit": "ng/mL"}, {"measurement": "Tlast", "setting": "[2]; [6]", "result": "16.0 ± 8.9", "unit": "h"}, {"measurement": "AUC(0-t)", "setting": "[3]; [7]", "result": "10.9 ± 6", "unit": "ng·h/mL"}, {"measurement": "Cmax", "setting": "[3]; [7]", "result": "0.9 ± 0.7", "unit": "ng/mL"}, {"measurement": "half-life", "setting": "[3]; [7]", "result": "25.8 ± 13.7", "unit": "h"}, {"measurement": "Tmax", "setting": "[3]; [7]", "result": 3.33, "unit": "h"}, {"measurement": "AUC(0-t)", "setting": "[3]; [8]", "result": "10.2 ± 0.3", "unit": "ng·h/mL"}, {"measurement": "Cmax", "setting": "[3]; [8]", "result": "0.6 ± 0.3", "unit": "ng/mL"}, {"measurement": "half-life", "setting": "[3]; [8]", "result": "12.2 ± 5.6", "unit": "h"}, {"measurement": "Tmax", "setting": "[3]; [8]", "result": 2.33, "unit": "h"}, {"measurement": "AUC(0-t)", "setting": "[3]; [9]", "result": "6.1 ± 2", "unit": "ng·h/mL"}, {"measurement": "Cmax", "setting": "[3]; [9]", "result": "0.4 ± 0.1", "unit": "ng/mL"}, {"measurement": "half-life", "setting": "[3]; [9]", "result": "13.2 ± 2.6", "unit": "h"}, {"measurement": "Tmax", "setting": "[3]; [9]", "result": 6.67, "unit": "h"}, {"measurement": "Clast", "setting": "[3]; [7]", "result": "0.3 ± 0.1", "unit": "ng/mL"}, {"measurement": "Tlast", "setting": "[3]; [7]", "result": "24.0 ± 0.0", "unit": "h"}, {"measurement": "Clast", "setting": "[3]; [8]", "result": "0.2 ± 0.1", "unit": "ng/mL"}, {"measurement": "Tlast", "setting": "[3]; [8]", "result": "18.7 ± 9.2", "unit": "h"}, {"measurement": "Clast", "setting": "[3]; [9]", "result": "0.1 ± 0.1", "unit": "ng/mL"}, {"measurement": "Tlast", "setting": "[3]; [9]", "result": "24.0 ± 0.0", "unit": "h"}, {"measurement": "Amount in plasma after topical CKLP1", "setting": "[3]; topical 10 mM CKLP1 in the eye", "result": "trace amounts"}, {"measurement": "concentration at 24 h", "setting": "[4]; aqueous humor, read-out: Concentration in aqueous humor", "result": "< 0.3", "unit": "ng/mL"}, {"measurement": "concentration at 24 h", "setting": "[4]; vitreous humor, read-out: Concentration in vitreous humor", "result": "< 0.3", "unit": "ng/mL"}, {"measurement": "Concentration in aqueous humor", "setting": "[4]", "result": "low levels"}, {"measurement": "Concentration in vitreous humor", "setting": "[4]", "result": "low levels"}, {"measurement": "Concentration in Brain", "setting": "[5]", "result": "not detected"}, {"measurement": "Concentration in Heart", "setting": "[5]", "result": "not detected"}, {"measurement": "Concentration in Liver", "setting": "[5]", "result": "5.9 ± 4.3 (n = 4/6) ng/g"}, {"measurement": "Concentration in Lung", "setting": "[5]", "result": "1.5 ± 0.0 ng/g and 1.5 ± 0.0 (n = 6/6) ng/g"}, {"measurement": "Concentration in Muscle", "setting": "[5]", "result": "not detected"}, {"measurement": "Concentration in Plasma", "setting": "[5]", "result": "no detectable levels"}, {"measurement": "Concentration in aqueous humor", "setting": "[5]", "result": "0.2 ± 0.1 (n = 4/6) ng/ml"}, {"measurement": "Concentration in vitreous humor", "setting": "[5]", "result": "0.1 ± 0.0 (n = 3/6) ng/ml"}, {"measurement": "Concentration in Liver", "setting": "[5]; listed as levcromakalim", "result": "5.9 ± 4.3", "unit": "ng/g"}, {"measurement": "Concentration in aqueous humor", "setting": "[5]; listed as levcromakalim", "result": "0.2 ± 0.1", "unit": "ng/mL"}, {"measurement": "Concentration in vitreous humor", "setting": "[5]; listed as levcromakalim", "result": "0.1 ± 0.0", "unit": "ng/mL"}]}]}
